In patent publication US20230295234A1, “ANTIMICROBIAL PEPTIDOMIMETICS” (SPEXIS AG, priority 2020, published 2023):
Peptide text beside a SMILES is read from it.

Assays:
[1] = system: human red blood cells (hRBC); assay: Hemolysis of human red blood cells; assay type: cell-based; conditions: red cells of human, 1 h
Method in brief: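 Percent hemolysis is OD540 of peptide-treated supernatant relative to water-lysed cells. Each peptide was tested at 200 μg/mL against 20% (v/v) washed human erythrocytes. Incubation was 1 h at 37 °C, 300 rpm.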

[2] = system: Klebsiella pneumoniae SSI3010; conditions: SSI3010
Method in brief: (§1)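 First, bacterial colonies are suspended in saline and adjusted to 0.5 McFarland. Next, the suspension is diluted into cation-adjusted Mueller-Hinton II broth (approx. 5×10^5 CFU/mL). Finally, it is added to two-fold serially diluted peptide, with polysorbate 80 at 0.002% final.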

[3] = system: Escherichia coli MCR-1 Af 45; conditions: MCR-1 Af 45
Method in brief: as §1

[4] = system: Escherichia coli ATCC 25922; conditions: ATCC 25922
Method in brief: as §1

Row | Klebsiella pneumoniae SSI3010 MIC [2] [mg/L] | Escherichia coli MCR-1 Af 45 MIC [3] [mg/L] | Escherichia coli ATCC 25922 MIC [4] [mg/L] | Structure (SMILES) | Hemolysis at 0.2 g/L [1] [%]
1 | ≤0.03125 | ≤0.03125 | ≤0.03125 | CC[C@H](C)[C@H](NC(=O)[C@@H](NC(=O)[C@@H]1CCCN1C(=O)[C@@H](NC(=O)[C@@H]1CCCN1C(=O)[C@H](CCCCN)NC(=O)CNCCCCN)C(C)C)[C@@H](C)CC)C(=O)N[C@@H](Cc1ccc(O)cc1)C(=O)N[C@H]1CSSC[C@@H](C(=O)N[C@@H](CCN)C(=O)N[C@@H](CCCNC(=N)N)C(=O)N[C@@H](Cc2ccc(O)cc2)C(=O)O)NC(=O)[C@H](CCCCN)NC(=O)[C@@H](CCN)NC(=O)[C@H]([C@@H](C)O)NC(=O)[C@H](CCN)NC(=O)[C@H](CCCNC(=N)N)NC(=O)[C@H](CC(N)=O)NC1=O [Example 97] (HELM PEPTIDE1{[NCCCCNCC(=O)[*:2]].K.P.V.P.I.I.Y.C.N.R.[Dab].T.[NCC[C@@H](N[*:1])C(=O)[*:2]].K.C.[Dab].R.Y}$PEPTIDE1,PEPTIDE1,9:R3-16:R3$$$V2.0; N-terminus assumed) | 0
2 | 0.0625 | ≤0.03125 | ≤0.03125 | CC[C@H](C)[C@H](NC(=O)[C@@H](NC(=O)[C@@H]1CCCN1C(=O)[C@@H](NC(=O)[C@@H]1CCCN1C(=O)[C@H](CCCCN)NC(=O)CNCCCN)C(C)C)[C@@H](C)CC)C(=O)N[C@@H](Cc1ccc(O)cc1)C(=O)N[C@H]1CSSC[C@@H](C(=O)N[C@@H](CCN)C(=O)N[C@@H](CCCNC(=N)N)C(=O)N[C@@H](Cc2ccc(O)cc2)C(=O)O)NC(=O)[C@H](CCCCN)NC(=O)[C@@H](CCN)NC(=O)[C@H]([C@@H](C)O)NC(=O)[C@H](CCN)NC(=O)[C@H](CCCNC(=N)N)NC(=O)[C@H](CC(N)=O)NC1=O [Example 98] (HELM PEPTIDE1{[NCCCNCC(=O)[*:2]].K.P.V.P.I.I.Y.C.N.R.[Dab].T.[NCC[C@@H](N[*:1])C(=O)[*:2]].K.C.[Dab].R.Y}$PEPTIDE1,PEPTIDE1,9:R3-16:R3$$$V2.0) | 0
3 | 0.0625 | ≤0.03125 | ≤0.03125 | CC[C@H](C)[C@H](NC(=O)[C@@H](NC(=O)[C@@H]1CCCN1C(=O)[C@@H](NC(=O)[C@@H]1CCCN1C(=O)CN(CCN)C(=O)[C@@H](N)CCCCN)C(C)C)[C@@H](C)CC)C(=O)N[C@@H](Cc1ccc(O)cc1)C(=O)N[C@H]1CSSC[C@@H](C(=O)N[C@@H](CCN)C(=O)N[C@@H](CCCNC(=N)N)C(=O)N[C@@H](Cc2ccc(O)cc2)C(=O)O)NC(=O)[C@H](CCCCN)NC(=O)[C@@H](CCN)NC(=O)[C@H]([C@@H](C)O)NC(=O)[C@H](CCN)NC(=O)[C@H](CCCNC(=N)N)NC(=O)[C@H](CC(N)=O)NC1=O [Example 99] (HELM PEPTIDE1{K.[NCCN(CC(=O)[*:2])[*:1]].P.V.P.I.I.Y.C.N.R.[Dab].T.[NCC[C@@H](N[*:1])C(=O)[*:2]].K.C.[Dab].R.Y}$PEPTIDE1,PEPTIDE1,9:R3-16:R3$$$V2.0; N-terminus assumed) | 0
4 | 0.0625 | ≤0.03125 | 0.03125 | CC[C@H](C)[C@H](NC(=O)[C@@H](NC(=O)[C@@H]1CCCN1C(=O)[C@@H](NC(=O)[C@@H]1CCCN1C(=O)CN(CCCCN)C(=O)[C@@H](N)CCCCN)C(C)C)[C@@H](C)CC)C(=O)N[C@@H](Cc1ccc(O)cc1)C(=O)N[C@H]1CSSC[C@@H](C(=O)N[C@@H](CCN)C(=O)N[C@@H](CCCNC(=N)N)C(=O)N[C@@H](Cc2ccc(O)cc2)C(=O)O)NC(=O)[C@H](CCCCN)NC(=O)[C@@H](CCN)NC(=O)[C@H]([C@@H](C)O)NC(=O)[C@H](CCN)NC(=O)[C@H](CCCNC(=N)N)NC(=O)[C@H](CC(N)=O)NC1=O [Example 100] (HELM PEPTIDE1{K.[NCCCCN(CC(=O)[*:2])[*:1]].P.V.P.I.I.Y.C.N.R.[Dab].T.[NCC[C@@H](N[*:1])C(=O)[*:2]].K.C.[Dab].R.Y}$PEPTIDE1,PEPTIDE1,9:R3-16:R3$$$V2.0; N-terminus assumed) | 0
5 | 0.0625 | 0.03125 | 0.0625 | CC[C@H](C)[C@H](NC(=O)[C@@H](NC(=O)[C@@H]1CCCN1C(=O)[C@@H](NC(=O)[C@@H]1CCCN1C(=O)CN(CCCN)C(=O)[C@@H](N)CCCCN)C(C)C)[C@@H](C)CC)C(=O)N[C@@H](Cc1ccc(O)cc1)C(=O)N[C@H]1CSSC[C@@H](C(=O)N[C@@H](CCN)C(=O)N[C@@H](CCCNC(=N)N)C(=O)N[C@@H](Cc2ccc(O)cc2)C(=O)O)NC(=O)[C@H](CCCCN)NC(=O)[C@@H](CCN)NC(=O)[C@H]([C@@H](C)O)NC(=O)[C@H](CCN)NC(=O)[C@H](CCCNC(=N)N)NC(=O)[C@H](CC(N)=O)NC1=O [Example 101] (HELM PEPTIDE1{K.[NCCCN(CC(=O)[*:2])[*:1]].P.V.P.I.I.Y.C.N.R.[Dab].T.[NCC[C@@H](N[*:1])C(=O)[*:2]].K.C.[Dab].R.Y}$PEPTIDE1,PEPTIDE1,9:R3-16:R3$$$V2.0) | 0
6 | 0.0625 | 0.0625 | 0.0625 | CC[C@H](C)[C@H](NC(=O)CN(CCN)C(=O)[C@@H](NC(=O)[C@@H]1CCCN1C(=O)[C@H](CCCCN)NC(=O)[C@@H](N)CCCCN)C(C)C)C(=O)N[C@H](C(=O)N[C@@H](Cc1ccc(O)cc1)C(=O)N[C@H]1CSSC[C@@H](C(=O)N[C@@H](CCN)C(=O)N[C@@H](CCCNC(=N)N)C(=O)N[C@@H](Cc2ccc(O)cc2)C(=O)O)NC(=O)[C@H](CCCCN)NC(=O)[C@@H](CCN)NC(=O)[C@H]([C@@H](C)O)NC(=O)[C@H](CCN)NC(=O)[C@H](CCCNC(=N)N)NC(=O)[C@H](CC(N)=O)NC1=O)[C@@H](C)CC [Example 102, Lys-Lys-Pro-Val-Ndab-Ile-Ile-Tyr-Cys-Asn-Arg-Dab-Thr-^DDab-Lys-Cys-Dab-Arg-Tyr] (HELM PEPTIDE1{K.K.P.V.[NCCN(CC(=O)[*:2])[*:1]].I.I.Y.C.N.R.[Dab].T.[NCC[C@@H](N[*:1])C(=O)[*:2]].K.C.[Dab].R.Y}$PEPTIDE1,PEPTIDE1,9:R3-16:R3$$$V2.0) | 0
7 | 0.0625 | ≤0.03125 | ≤0.03125 | CC[C@H](C)[C@H](NC(=O)[C@@H](NC(=O)[C@@H]1CCCN1C(=O)[C@@H](NC(=O)[C@@H]1CCCN1C(=O)[C@H](CCCCN)NC(=O)[C@@H](N)CCCCN)C(C)C)[C@@H](C)CC)C(=O)N[C@@H](Cc1ccc(O)cc1)C(=O)N[C@H]1CSSC(C)(C)[C@@H](C(=O)N[C@@H](CCN)C(=O)N[C@@H](CCCNC(=N)N)C(=O)N[C@@H](Cc2ccc(O)cc2)C(=O)O)NC(=O)[C@H](CCCCN)NC(=O)[C@@H](CCN)NC(=O)[C@H]([C@@H](C)O)NC(=O)[C@H](CCN)NC(=O)[C@H](CCCNC(=N)N)NC(=O)[C@H](CC(N)=O)NC1=O [Example 103] (HELM PEPTIDE1{K.K.P.V.P.I.I.Y.C.N.R.[Dab].T.[NCC[C@@H](N[*:1])C(=O)[*:2]].K.[Pen].[Dab].R.Y}$PEPTIDE1,PEPTIDE1,9:R3-16:R3$$$V2.0) | 0
8 | 0.125 | 0.125 | 0.25 | CC[C@H](C)[C@H](NC(=O)[C@@H](NC(=O)[C@@H]1CCCN1C(=O)[C@@H](NC(=O)[C@@H]1CCCN1C(=O)[C@H](CCCCN)NC(=O)[C@@H](N)CCCCN)C(C)C)[C@@H](C)CC)C(=O)N[C@@H](Cc1ccc(O)cc1)C(=O)N[C@H]1CSSC[C@@H](C(=O)N[C@@H](CCN)C(=O)N[C@@H](CCCNC(=N)N)C(=O)N[C@@H](Cc2ccc(O)cc2)C(=O)O)NC(=O)[C@H](CCCCN)NC(=O)[C@@H](CCN)NC(=O)[C@H]([C@@H](C)O)NC(=O)[C@H](CCN)NC(=O)CN(CCCNC(=N)N)C(=O)[C@H](CC(N)=O)NC1=O [Example 104] (HELM PEPTIDE1{K.K.P.V.P.I.I.Y.C.N.[N=C(N)NCCCN(CC(=O)[*:2])[*:1]].[Dab].T.[NCC[C@@H](N[*:1])C(=O)[*:2]].K.C.[Dab].R.Y}$PEPTIDE1,PEPTIDE1,9:R3-16:R3$$$V2.0; N-terminus assumed) | 0
9 | 0.125 | 0.0625 | 0.125 | CC[C@H](C)[C@H](NC(=O)[C@@H](NC(=O)[C@@H]1CCCN1C(=O)[C@@H](NC(=O)[C@@H]1CCCN1C(=O)[C@H](CCCCN)NC(=O)[C@@H](N)CCCCN)C(C)C)[C@@H](C)CC)C(=O)N[C@@H](Cc1ccc(O)cc1)C(=O)N[C@H]1CSSC[C@@H](C(=O)N[C@@H](CCN)C(=O)N[C@@H](CCCNC(=N)N)C(=O)N[C@@H](Cc2ccc(O)cc2)C(=O)O)NC(=O)[C@H](CCCCN)NC(=O)[C@@H](CCN)NC(=O)[C@H]([C@@H](C)O)NC(=O)CN(CCCCN)C(=O)[C@H](CCCNC(=N)N)NC(=O)[C@H](CC(N)=O)NC1=O [Example 105] (HELM PEPTIDE1{K.K.P.V.P.I.I.Y.C.N.R.[NCCCCN(CC(=O)[*:2])[*:1]].T.[NCC[C@@H](N[*:1])C(=O)[*:2]].K.C.[Dab].R.Y}$PEPTIDE1,PEPTIDE1,9:R3-16:R3$$$V2.0) | 0
